# Measurements from patent publication US8546611B2 (priority 2008, dated 2013).
# Where two headings read alike, the source gives them in different places.
# Assays:
# [1] = system: patients with cardiac insufficiency; settings: for patients of functional class I, day 30 / patients of functional class II, day 30 / patients of functional class III, day 30 / patients of functional class IV, day 30 / patients of functional class I, day 60 / patients of functional class II, day 60 / patients of functional class III, day 60 / patients of functional class IV, day 60 / patients of functional class I, day 90 / patients of functional class II, day 90 / patients of functional class III, day 90 / patients of functional class IV, day 90: 100 mg twice per day with standard therapy; for patients of functional class I, day 30 / patients of functional class II, day 30 / patients of functional class III, day 30 / patients of functional class IV, day 30: after 30 days; for patients of functional class I, day 60 / patients of functional class II, day 60 / patients of functional class III, day 60 / patients of functional class IV, day 60: after 60 days; for patients of functional class I, day 90 / patients of functional class II, day 90 / patients of functional class III, day 90 / patients of functional class IV, day 90: after 90 days; for cardiotonic properties / dynamics of functional class, conclusion in words / patients of functional class I, day 0 / patients of functional class II, day 0 / patients of functional class III, day 0 / patients of functional class IV, day 0: 100 mg twice per day, 3 months; for patients of functional class I, day 0 / patients of functional class II, day 0 / patients of functional class III, day 0 / patients of functional class IV, day 0: with standard therapy, before treatment
# white rat females = settings: in vivo; for Total died: 14 days
# [2] = system: erythroid cells isolated from the bone marrow of laboratory mice males; settings: feed with succinic acid 20 mg/kg body wt., not irradiated, norm 5.0±1.0
# Description: The test for genotoxicity was performed on young laboratory mice males (18-20 g; 6 animals in each group). […] The control animals were given water.
# [3] = system: erythroid cells isolated from the bone marrow of gamma-irradiated laboratory mice males; assay: Radioprotective properties (micronucleus test after gamma irradiation); settings: for radioprotective effect, conclusion in words: gamma rays 1.3 Gy, 20 mg/kg body wt., 48 h, 20 mg/kg; for Number of micronuclei per 2000 cells (radioprotective properties): mice irradiated with gamma rays 1.3 Gy, then fed 48 h succinic acid 20 mg/kg body wt., critical value 16±2
# Wistar rat males = settings: for adaptogenic properties, conclusion in words: 6-hour immobilization stress, Wistar rats; for Eosinophils, 6 h after / Lymphocytes, 6 h after / Number of leukocytes in 1 μl of blood, 6 h after / Segmentated cells, 6 h after: 6 h after immobilization; for Eosinophils, 6 h after / Lymphocytes, 6 h after / Number of leukocytes in 1 μl of blood, 6 h after / Segmentated cells, 6 h after / Eosinophils, before / Lymphocytes, before / Number of leukocytes in 1 μl of blood, before / Segmentated cells, before: 1.5 ml of 1% succinic acid perorally 10 min prior; for Eosinophils, before / Lymphocytes, before / Number of leukocytes in 1 μl of blood, before / Segmentated cells, before: at the moment of immobilization
# [4] = compared with “natural” SA
SMILES,"patients of functional class I, day 30 [1]","patients of functional class II, day 30 [1]","patients of functional class III, day 30 [1]","patients of functional class IV, day 30 [1]","patients of functional class I, day 60 [1]","patients of functional class II, day 60 [1]","patients of functional class III, day 60 [1]","patients of functional class IV, day 60 [1]","patients of functional class I, day 90 [1]","patients of functional class II, day 90 [1]","patients of functional class III, day 90 [1]","patients of functional class IV, day 90 [1]","cardiotonic properties / dynamics of functional class, conclusion in words [1]","patients of functional class I, day 0 [1]","patients of functional class II, day 0 [1]","patients of functional class III, day 0 [1]","patients of functional class IV, day 0 [1]","Total died (white rat females; female, 5000 mg/kg)",Number of micronuclei per 2000 cells (genotoxicity) [2],"radioprotective effect, conclusion in words [3]",also measured
"O=C(O)CCC(=O)O [Example 2, succinic acid, reference compound]",8,7,5,0,8,8,4,0,8,8,4,0,slight positive dynamics,8,7,5,0,0,5.5 ± 1.0,no evident radioprotective effect,"animals died, extra test with doubled dose (white rat females; 10000 mg/kg): Not a single animal died; Number of micronuclei per 2000 cells (radioprotective properties) [3]: 22.5 ± 1.0; adaptogenic properties, conclusion in words (Wistar rat males): slight adaptogenic properties; Eosinophils, 6 h after (Wistar rat males; listed as Ex. 2): 0%; Lymphocytes, 6 h after (Wistar rat males; listed as Ex. 2): 70 ± 5%; Number of leukocytes in 1 μl of blood, 6 h after (Wistar rat males; listed as Ex. 2): 7700; Segmentated cells, 6 h after (Wistar rat males; listed as Ex. 2): 30 ± 3%; Eosinophils, before (Wistar rat males; listed as Ex. 2): 2 ± 2%; Lymphocytes, before (Wistar rat males; listed as Ex. 2): 76 ± 4%; Number of leukocytes in 1 μl of blood, before (Wistar rat males; listed as Ex. 2): 5700; Segmentated cells, before (Wistar rat males; listed as Ex. 2): 21 ± 4%; biological activity, overall conclusion in words [4]: do not possess high biological activity"
"O=C(O)CCC(=O)O [Example 3, succinic acid, reference compound]",9,7,4,0,9,7,4,0,10,7,3,0,more expressed,8,7,5,0,2,5.0 ± 0.6,close to the dividing line,"died, 14 day (white rat females; female, 5000 mg/kg, 14 day): 2; Number of micronuclei per 2000 cells (radioprotective properties) [3]: 16.0 ± 1.6; adaptogenic properties, conclusion in words (Wistar rat males): at the “borderline”; Eosinophils, 6 h after (Wistar rat males; listed as Ex. 3): 0.5 ± 4%; Lymphocytes, 6 h after (Wistar rat males; listed as Ex. 3): 73 ± 5%; Number of leukocytes in 1 μl of blood, 6 h after (Wistar rat males; listed as Ex. 3): 7100; Segmentated cells, 6 h after (Wistar rat males; listed as Ex. 3): 26 ± 3%; Eosinophils, before (Wistar rat males; listed as Ex. 3): 2 ± 6%; Lymphocytes, before (Wistar rat males; listed as Ex. 3): 76 ± 6%; Number of leukocytes in 1 μl of blood, before (Wistar rat males; listed as Ex. 3): 5700; Segmentated cells, before (Wistar rat males; listed as Ex. 3): 22 ± 3%; biological activity, overall conclusion in words [4]: higher activity but it is far from that of “natural” SA"
